Test system: MALME3 melanoma viability, CellTiter-Glo luminescence, 24 h
Assay: MALME3 melanoma cell viability loss, dose response, orthogonal assay for MITF inhibitor project, CellTiter-Glo, cherry-picked (AID 493191)

Compound | AC50
Cc1ccc(C(O)(c2ccc(C)c(C)c2)C2CN3CCC2CC3)cc1C (stereo not drawn) | 22.7 µM
CC1CCC/C=C/C(=O)c2c(O)cc(O)cc2CC(=O)O1 (stereo not drawn) | 21.2 µM
CC1CCCC(NCC(O)COC(c2ccc(F)cc2)c2ccc(F)cc2)C1C (stereo not drawn) | 20.5 µM
CC(C)Oc1ccc(C(CCNCc2ccc(O)cc2)c2ccccc2)cc1 (stereo not drawn) | 32.9 µM
O=C(N/N=C/c1ccc([N+](=O)[O-])s1)c1ccccc1Br | 26.9 µM
O=c1c(Cl)c2oc3ccccc3nc-2c2ccccc12 | 14.3 µM
COC(=O)CCS(=O)(=O)c1nc(-c2ccccc2)cc(C(F)(F)F)n1 | 14.9 µM
N=c1n(Cc2ccc(Cl)cc2)c2ccccc2n1CC(O)COc1ccccc1 (stereo not drawn) | 14.8 µM
COc1ccc(C(=O)/C=C/C(=O)N(CC(=O)NC2CCCCC2)Cc2cccs2)c(O)c1 | 5.25 µM
O=C(N/N=C/c1ccc([N+](=O)[O-])o1)c1cc2ccccc2o1 | 10.5 µM
COc1ccc(C(=O)/C(C#N)=N/Nc2ccc([N+](=O)[O-])cc2)cc1 | 16 µM
CC1(C)Cc2ccccc2C2=NNC(=O)C2=N1 | 7 µM
CC1CCC(C(C)C)C(OC(=O)Cn2c(-c3ccc(Br)cc3)[n+](C)c3ccccc32)C1 (stereo not drawn) | 10.1 µM
COc1ccccc1CNCC(O)Cn1c2ccccc2c2ccccc21 (stereo not drawn) | 20 µM
O=C1c2cc(F)ccc2-n2c1nc1ccccc1c2=O | 4.39 µM
COc1ccc(S(=O)(=O)N(C(C)=O)c2ccc(OC(C)=O)c3ccccc23)cc1[N+](=O)[O-] | 18.1 µM
Cc1ccc(NC(=O)CCl)cc1S(=O)(=O)N1CCCCCC1 | 18.1 µM
CC1C/C(=C\c2cccnc2)C(=O)/C(=C/c2cccnc2)C1 (stereo not drawn) | 3.9 µM
CN(C)CCCNC(=O)/C(=C\c1ccc(-c2ccc(Br)cc2)o1)NC(=O)c1ccccc1 | 16.3 µM
CCCCn1c(=N)n(CC(=O)c2ccc(Br)s2)c2ccccc21 | 33.2 µM
C/C(=N/NC(=O)C(O)(c1ccccc1)c1ccccc1)c1ccc([N+](=O)[O-])o1 | 34.1 µM
COC(=O)C1=C(C)N(Cc2ccccc2)C(=NCC(C)C)N[C@H]1c1cccc(C(F)(F)F)c1 | 16.9 µM

Compound | AC50
CCCCn1c(=N)n(CCOc2ccc(C)cc2)c2ccccc21 | 26.5 µM
CCC(=O)N1CCN(c2ccc(NC(=O)c3ccc([N+](=O)[O-])o3)cc2)CC1 | 12.7 µM
COc1ccc(C(=O)/C=C/C(=O)N(CC(=O)NC2CCCCC2)Cc2ccccc2OC)c(O)c1 | 4.63 µM
Cc1cccc(NC(=O)CNC(=O)Cn2ncc(Cl)c(Cl)c2=O)c1C | 14.1 µM
N#C/C(=C(/O)c1ccc([N+](=O)[O-])o1)c1nc2ccccc2[nH]1 | 9.62 µM
CCc1ccccc1NC(=O)CN(C)C(=O)Cn1ncc(Cl)c(Cl)c1=O | 11.8 µM
Cc1ccc(S(=O)(=O)/N=C2\C(=O)c3ccccc3C([O-])=C2n2cc[n+](CCC(C)C)c2)cc1 | 11.4 µM
CCSCCc1nnc(NC(=O)Nc2cccc(C(F)(F)F)c2)s1 | 29 µM
Cc1ccc(NC(=O)CCC(=O)N/N=C/c2ccc([N+](=O)[O-])o2)cc1C | 21.9 µM
COc1ccc2oc(C(=O)Nc3ccc(S(=O)(=O)N(C)C4CCN(C)CC4)cc3)c(C)c2c1 | 33.5 µM
CCCOCc1ccc(O)c2ncccc12 | 32.2 µM
CC(=O)Nc1ccc(NC(=O)c2nc(S(=O)(=O)Cc3ccccc3)ncc2Cl)cc1 | 5.12 µM
CN(C)S(=O)(=O)c1ccc(-c2csc(N/N=C/c3ccc(O)cc3)n2)cc1 | 21.2 µM
CCOC(=O)CCc1ccc(NC(=O)/C=C/c2ccc([N+](=O)[O-])o2)cc1 | 13.9 µM
COc1ccc(-c2cc(-c3ccccc3)c(C#N)c(S(C)=O)n2)cc1 (stereo not drawn) | 23.8 µM
CC1CCN(CC(CS(=O)(=O)c2ccc([N+](=O)[O-])cc2)N2CCC(C)CC2)CC1 (stereo not drawn) | 18.9 µM
CCN1CCN(CCCNC(=O)c2ccc3c(c2)NC(=O)/C(=C\c2cccc(C)c2)S3)CC1 | 28.1 µM
CC(=O)Nc1ccc(S(=O)(=O)NC2=C(N3CCN(C)CC3)C(=O)c3ccccc3C2=O)cc1 | 8.92 µM
O=C(COc1ccc(Cl)cc1Cl)Nc1ccccn1 | 14.5 µM
COc1ccc(CNCCC(c2ccc(F)cc2)c2ccc(OC)cc2)cc1 (stereo not drawn) | 22 µM
COc1ccc(C[C@H]2CN3C(=NC[C@@H]3C(C)C)N2CCNC(=O)c2ccc(C)c(Br)c2)cc1 | 27.1 µM
COc1cccc(CNCCc2c[nH]c3ccccc23)c1OCc1ccccc1 | 17.9 µM

Compound | AC50
Cc1ccccc1-c1nc(-c2ccccn2)no1 | 22.2 µM
COc1ccc(NC(=O)CCC(=O)N/N=C/c2ccc([N+](=O)[O-])s2)cc1 | 28.2 µM
CN(C)CCCN(C(=O)CCc1ccccc1)c1nc2ccc(Br)cc2s1 | 19.2 µM
CCOC(=O)c1ccc(NC(=O)c2nc(S(=O)(=O)Cc3ccccc3)ncc2Cl)cc1 | 4.47 µM
COc1ccccc1-c1cc(C(F)(F)F)nc(S(C)(=O)=O)n1 | 19.6 µM
Cc1ccccc1C(=O)N/N=C/c1ccc([N+](=O)[O-])s1 | 30.9 µM
CCOc1ccc(-c2ccc(SC)nn2)cc1 | 26.5 µM
O=C(Nc1ccccc1N1CCN(C(=O)c2ccccc2)CC1)c1ccc([N+](=O)[O-])o1 | 27.1 µM
COc1ccc(N(Cc2cc(=O)[nH]c3ccccc23)C(=O)CCl)cc1 | 15.8 µM
FC(F)(F)c1cc(CCN2CCNC[C@@H]2Cc2ccccc2)cc(C(F)(F)F)c1 | 19.3 µM
Cc1cc(C)cc(NC(=O)c2ccc([N+](=O)[O-])o2)c1 | 17.9 µM
CC(C)(C)C(=O)/C(=C/c1ccncc1)n1cncn1 | 21.9 µM
CCOc1c(Br)cc(CNC2CCCCCCC2)cc1OC | 27.6 µM
CCOC(=O)CSC1=NC(=O)/C(=C/c2ccc(OC)cc2)S1 | 3.6 µM
Cc1ccc(NC(=O)c2ncn(CCCN[C@H](C)c3cccc4ccccc34)n2)cc1C | 29.2 µM
O=C(Nc1ccc(N2CCN(C(=O)c3ccccc3)CC2)cc1)c1ccc([N+](=O)[O-])o1 | 9.02 µM
COc1cc(CNC2CCCC2)cc(Cl)c1OCc1ccccc1Cl | 17.6 µM
O=C(N/N=C/c1ccc([N+](=O)[O-])s1)c1cccc(Br)c1 | 29.9 µM
CC1(C)CC(NC(=O)c2ccc(Cl)c(S(=O)(=O)N(Cc3ccccc3)c3ccccc3)c2)CC(C)(C)N1 | 22.7 µM
C#CCCc1ccccc1/C=[N+](/C)[O-] | 28.8 µM
O=C(CCl)N1N=C(c2ccco2)CC1c1cccs1 (stereo not drawn) | 23 µM
CCN1CCN(c2ccc(S(=O)(=O)N3CCCCC3)cc2NC(=O)/C=C/c2cccc(OC)c2OC)CC1 | 29.7 µM

Compound | AC50
CCCCCCCNC(=O)C1(CC2CC(c3ccc(Cl)cc3)=NO2)CCNCC1 (stereo not drawn) | 15.2 µM
CCN1CCN(c2ccc(NC(=O)c3ccc([N+](=O)[O-])o3)cc2Cl)CC1 | 14.4 µM
O=C(NCC1CCCCC1)C1(CC2CC(c3cccc(Br)c3)=NO2)CCNCC1 (stereo not drawn) | 24.4 µM
O=C(N/N=C/c1ccc([N+](=O)[O-])o1)c1ccccc1-n1cccc1 | 32.1 µM
Cc1[nH]c2ccccc2c1C(=O)CCl | 27.6 µM
COc1ccc(C(=O)/C=C/C(=O)N(CC(=O)NC2CCCCC2)Cc2ccc(F)cc2)c(O)c1 | 7.85 µM
CCN(CC)S(=O)(=O)c1ccc(N2CCCC2)c(NC(=O)c2ccc([N+](=O)[O-])o2)c1 | 19.5 µM
Cc1ccc(S(=O)(=O)N2CCCCC2)cc1NC(=O)Cn1ncc(Cl)c(Cl)c1=O | 6.08 µM
CCOc1ccc2nc(NC3=NC(c4ccc(OC)cc4)CC(=O)N3)nc(C)c2c1 (stereo not drawn) | 24.6 µM
CC(NC(=O)C12CC3CC(CC(C3)C1)C2)C(=O)NN=Cc1ccc([N+](=O)[O-])o1 (stereo not drawn) | 26.9 µM
O=C1c2cc([N+](=O)[O-])cc3cc([N+](=O)[O-])cc(c23)C(=O)N1c1ccccn1 | 21.9 µM
O=C(CCl)Nc1cccc(-c2cnc3ccccc3n2)c1 | 15.2 µM
S=C=Nc1cccc(C2(N3CCCCC3)CCCCC2)c1 | 26 µM
O=C(Nc1nc(-c2ccccn2)cs1)c1ccc([N+](=O)[O-])o1 | 28.5 µM
Cc1ccc2nc(C)cc(Nc3ccc([N+](=O)[O-])cc3)c2c1 | 31.5 µM
O=C1C(Cl)=C(N2CCN(c3ccccc3[N+](=O)[O-])CC2)C(=O)c2ccccc21 | 18.2 µM
CCC(=O)N1CCN(c2ccc(NC(=O)c3ccc([N+](=O)[O-])o3)cc2Cl)CC1 | 9.97 µM
Cc1ccc2nc(N(CCCN(C)C)C(=O)c3ccc4c(c3)CCCC4)sc2c1 | 21.6 µM
CN1CCN(c2ccccc2NC(=O)c2ccc([N+](=O)[O-])o2)CC1 | 10 µM
CCOc1ccc(-n2c(C)cc(C(=O)CCl)c2C)cc1 | 19.9 µM
COc1cccc2sc(N3CCN(C(=O)c4ccc([N+](=O)[O-])o4)CC3)nc12 | 23.4 µM
Cc1ccc(NCC(=O)N/N=C\c2ccc([N+](=O)[O-])o2)cc1 | 25.3 µM

Compound | AC50
COc1ccc2nc(N3CCN(C(=O)c4ccc([N+](=O)[O-])o4)CC3)sc2c1 | 21.7 µM
Cc1[nH]nc2nc(SCC(=O)NCCC3=CCCCC3)n(-c3ccc(Br)cc3)c(=N)c12 | 20.5 µM
COC1=C(c2ccccc2)C(=O)c2ccccc2C1=O | 20.3 µM
Cc1cc(Sc2ncnc(N)c2[N+](=O)[O-])ncn1 | 34 µM
O=C(CCl)Nc1cccc(S(=O)(=O)N2CCCCCC2)c1 | 17.9 µM
CC(=O)OCCNc1cc(Sc2nc3ccccc3[nH]2)c2nonc2c1[N+](=O)[O-] | 13.6 µM
O=C1CN(C(=O)Cn2ncc(Cl)c(Cl)c2=O)c2ccccc2N1 | 15.4 µM
Cc1cc(C)c[n+](C2=C([O-])c3ccccc3C(=O)/C2=N\S(=O)(=O)c2cccs2)c1 | 9.5 µM
CCN1CCCC1CNC(=O)c1ccc2c(c1)NC(=O)/C(=C\c1ccc(C)cc1)S2 (stereo not drawn) | 26 µM
COc1ccccc1OCC(=O)N/N=C/C=C/c1ccc([N+](=O)[O-])o1 | 20.6 µM
Cc1c(C(=O)Nc2ccc(S(=O)(=O)N(C)C3CCN(C)CC3)cc2)oc2c(Cl)cccc12 | 26.4 µM
O=C(/C=C/c1ccc(Cl)cc1)c1ccc([N+](=O)[O-])o1 | 24.5 µM
Cc1cc2ncn(/N=C/c3ccc([N+](=O)[O-])o3)c2cc1C | 15.9 µM
N=c1n(CC(=O)c2ccc([N+](=O)[O-])cc2)c2ccccc2n1Cc1ccc(Cl)cc1 | 17.2 µM
CCOC(=O)c1nnn(-c2ccc([N+](=O)[O-])cc2[N+](=O)[O-])c1C | 16 µM
Cc1ccc2[nH]c(=O)c(CN(CCCN(C)C)C(=O)Nc3cccc(Cl)c3)cc2c1 | 24.9 µM
C=CCn1c(C)cc(C2=NNC(=NCC)SC2)c1C | 17.6 µM
Cc1ccc(Oc2c(C(N)=O)cc([N+](=O)[O-])cc2[N+](=O)[O-])cc1 | 25.9 µM
O=[N+]([O-])c1ccc(S(=O)(=O)CC(CN2CCCCC2)N2CCCCC2)cc1 (stereo not drawn) | 13.4 µM
Cc1cc(NC(=O)c2ccc([N+](=O)[O-])o2)ccc1NC(=O)c1ccco1 | 12.5 µM
